Data published in US9510598B2, “Nitrogen-containing heterocyclic compounds for plant disease control” (BAYER CROPSCIENCE AG, priority 2012, dated 2016).
“And” between values parts separate entries of the source, which are not always exact repeats. Equal values may be shown once. Read-outs that look alike come from different tables or passages of the source.

Legend:
[1] = assay type: physicochemical
Alternaria brassicae = assay: In vivo preventive test on Alternaria brassicae (leaf spot on radish); conditions: 500 ppm; radish plants sprayed 24 hours before contamination; grading 5 days after contamination vs control plants
Procedure: Radish plants (“Pernod Clair” variety), sown in starter cups on a 50/50 peat soil-pozzolana substrate and grown at 17° C., are treated at the 2-leaf stage by spraying with the active ingredient prepared as described above. Plants, used as controls, are treated with the mixture of acetone/tween/DMSO/water not containing the active material. After 24 hours, the plants are contaminated by spraying the leaves with an aqueous suspension of Alternaria brassicae spores (50 000 spores per ml). The spores are collected from a 15-day-old culture. […] Grading (% of efficacy) is carried out 5 days after the contamination, in comparison with the control plants.

Sphaerotheca fuliginea = assay: In vivo preventive test on Sphaerotheca fuliginea (powdery mildew on cucurbits); conditions: 500 ppm; gherkin plants sprayed 24 hours before contamination; grading 12 days after contamination vs control plants
Summary of the method: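 Preventive spray of gherkin plants at Z11 cotyledon stage, grown at 24° C; inoculation 24 hours later with Sphaerotheca fuliginea spores (100 000 spores per ml). Efficacy graded 12 days post-inoculation as % versus solvent-treated control plants.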

Septoria tritici = assay: In vivo preventive test on Septoria tritici (leaf spot on wheat); conditions: 500 ppm; wheat plants sprayed 24 hours before contamination; grading 21 to 28 days after contamination vs control plants
Summary of the method: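 Scipion wheat at 1-leaf stage sprayed with compound, controls receiving acetone/tween/DMSO/water vehicle; 24 h later leaves inoculated with Septoria tritici spores (500 000 spores per ml). Efficacy (%) graded versus control plants 21 to 28 days after contamination.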

Phytophthora infestans = assay type: in vivo; conditions: 500 ppm; tomato plants sprayed 24 hours before contamination; grading 5 days after contamination vs control plants
Botrytis cinerea = assay: In vivo preventive test on Botrytis cinerea (grey mould); conditions: 500 ppm; gherkin plants sprayed 24 hours before contamination; grading 4-5 days after contamination vs control plants
Summary of the method: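 Gherkin plants ("Vert petit de Paris") sprayed with compound at Z11 cotyledon stage, then inoculated 24 h later with B. cinerea spores (50 000/ml) in PDB/fructose/NH4NO3/KH2PO4 nutrient solution. Incubated at 17 °C, 80% RH; % efficacy versus solvent-treated controls graded 4–5 days after contamination.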

[2] = method [a]: HPLC/LC-MS on reversed phase at pH 2.7, 0.1% formic acid in water / acetonitrile, gradient 10% to 95% acetonitrile
[3] = method [a]: HPLC/LC-MS on reversed phase at pH 2.7, 0.1% formic acid in water / acetonitrile, linear gradient 10% to 95% acetonitrile
[4] = HPLC on reversed phase columns, method [a]: pH 2.7, 0.1% formic acid in water / acetonitrile, linear gradient 10% to 95% acetonitrile
[5] = HPLC on reversed phase columns, method [a]: pH 2.7, 0.1% formic acid in water and acetonitrile, linear gradient 10% to 95% acetonitrile

CCOCCCNC(=O)C1(CC2CC2)CC(c2ccc3ncc(Br)cc3c2)=NO1 (racemic) [compound 426]
log P [1, 2]: 3.55[a]
% of efficacy (protection) (Alternaria brassicae): 78%

O=C(NC1CC1)C1(CC2CC2)CC(c2ccc3ncc(Br)cc3c2)=NO1 (racemic) [compound 427]
log P [1, 2]: 3.20[a]
% of efficacy (protection) (Alternaria brassicae): 83%

C#Cc1cnc2ccc(C3=NOC(C)(C(=O)NC(C)C)C3)cc2c1 (stereo not shown) [compound 40]
log P [1, 3]: 2.28^[a]
% of efficacy (protection) (Sphaerotheca fuliginea): 100%
% of efficacy (protection) (Septoria tritici): 100%
% of efficacy (protection) (Phytophthora infestans): 97%
% of efficacy (protection) (Botrytis cinerea): 100%

CCn1cc(CNC(=O)C2(CC)CC(c3ccc4ncc(Br)cc4c3)=NO2)c(C)n1 (stereo not shown) [compound 70]
log P [1, 3]: 2.66^[a]
% of efficacy (protection) (Sphaerotheca fuliginea): 100%
% of efficacy (protection) (Septoria tritici): 100%
% of efficacy (protection) (Phytophthora infestans): 82%
% of efficacy (protection) (Botrytis cinerea): 93%

C#Cc1cnc2ccc(C3=NOC(C)(C(=O)NCc4cn(CCC)nc4C)C3)cc2c1 (stereo not shown) [compound 83]
log P [1, 3]: 2.39^[a]
% of efficacy (protection) (Sphaerotheca fuliginea): 97% and 98%
% of efficacy (protection) (Septoria tritici): 92%
% of efficacy (protection) (Phytophthora infestans): 97%
% of efficacy (protection) (Botrytis cinerea): 100%

CC1(C(=O)NCc2ccc(Oc3ccccc3)cc2)CC(c2ccc3ncc(Br)cc3c2)=NO1 (stereo not shown) [compound 84]
log P [1, 3]: 4.24^[a]
% of efficacy (protection) (Alternaria brassicae): 80%

CC1(C(=O)NCc2ccc(Cl)cc2Cl)CC(c2ccc3ncc(Br)cc3c2)=NO1 (stereo not shown) [compound 95]
log P [1, 3]: 4.16^[a]
% of efficacy (protection) (Alternaria brassicae): 70%

CC1(C(=O)NCc2ccnc(N3CCOCC3)c2)CC(c2ccc3ncc(Br)cc3c2)=NO1 (stereo not shown) [compound 98]
log P [1, 3]: 1.51^[a]
% of efficacy (protection) (Alternaria brassicae): 70%

CCn1ncc(CNC(=O)C2(C)CC(c3ccc4ncc(Br)cc4c3)=NO2)c1C (stereo not shown) [compound 100]
log P [1, 3]: 2.37^[a]
% of efficacy (protection) (Sphaerotheca fuliginea): 94%
% of efficacy (protection) (Septoria tritici): 75%
% of efficacy (protection) (Phytophthora infestans): 98%
% of efficacy (protection) (Botrytis cinerea): 97%

CC1(C(=O)NCc2ccco2)CC(c2ccc3ncc(Br)cc3c2)=NO1 (stereo not shown) [compound 161]
log P [1, 3]: 2.82^[a]
% of efficacy (protection) (Alternaria brassicae): 75%

C#Cc1cnc2ccc(C3=NOC(C)(C(=O)NCc4ccc(C)o4)C3)cc2c1 (stereo not shown) [compound 163]
log P [1, 3]: 2.8^[a]
% of efficacy (protection) (Alternaria brassicae): 88%

C#Cc1cnc2ccc(C3=NOC(C)(C(=O)NCc4ccc(OC(F)(F)F)cc4)C3)cc2c1 (stereo not shown) [compound 173]
log P [1, 3]: 3.53^[a]
% of efficacy (protection) (Alternaria brassicae): 88%

C#Cc1cnc2ccc(C3=NOC(C)(C(=O)NCc4ccccc4Oc4ccccc4)C3)cc2c1 (stereo not shown) [compound 187]
log P [1, 3]: 3.89^[a]
% of efficacy (protection) (Alternaria brassicae): 88%

CC1(C(=O)NCc2cccc(OC(F)(F)F)c2)CC(c2ccc3ncc(Br)cc3c2)=NO1 (stereo not shown) [compound 188]
log P [1, 3]: 3.89^[a]
% of efficacy (protection) (Alternaria brassicae): 88%

C#Cc1cnc2ccc(C3=NOC(C)(C(=O)NCc4cnn(CC)c4C)C3)cc2c1 (stereo not shown) [compound 195]
log P [1, 3]: 2.11^[a]
% of efficacy (protection) (Sphaerotheca fuliginea): 98%
% of efficacy (protection) (Septoria tritici): 100%
% of efficacy (protection) (Phytophthora infestans): 100%
% of efficacy (protection) (Botrytis cinerea): 97%

C#Cc1cnc2ccc(C3=NOC(C)(C(=O)NCc4cnn(C(C)C)c4)C3)cc2c1 (stereo not shown) [compound 197]
log P [1, 3]: 2.23^[a]
% of efficacy (protection) (Sphaerotheca fuliginea): 98%
% of efficacy (protection) (Septoria tritici): 86%
% of efficacy (protection) (Phytophthora infestans): 97%
% of efficacy (protection) (Botrytis cinerea): 100%

C#Cc1cnc2ccc(C3=NOC(C)(C(=O)NCc4ccc5c(c4)OCCO5)C3)cc2c1 (stereo not shown) [compound 208]
log P [1, 3]: 2.71^[a]
% of efficacy (protection) (Alternaria brassicae): 88%

CC1(C(=O)NCC2(c3ccc(F)cc3)CC2)CC(c2ccc3ncc(Br)cc3c2)=NO1 (stereo not shown) [compound 221]
log P [1, 3]: 3.81^[a]
% of efficacy (protection) (Alternaria brassicae): 98%

C#Cc1cnc2ccc(C3=NOC(C)(C(=O)NCc4ccc5[nH]c(C)cc5c4)C3)cc2c1 (stereo not shown) [compound 226]
log P [1, 3]: 2.84^[a]
% of efficacy (protection) (Alternaria brassicae): 81%

CC(NC(=O)C1(C)CC(c2ccc3ncc(Br)cc3c2)=NO1)C1CCOC1 (stereo not shown) [compound 291]
log P [1, 4]: 2.46[a]
% of efficacy (protection) (Sphaerotheca fuliginea): 80%
% of efficacy (protection) (Septoria tritici): 100%
% of efficacy (protection) (Phytophthora infestans): 87%
% of efficacy (protection) (Botrytis cinerea): 88%

C#Cc1cnc2ccc(C3=NOC(OC)(C(=O)NCc4c(C)cnn4CCC)C3)cc2c1 (stereo not shown) [compound 409]
log P [1, 2]: 2.33[a]
% of efficacy (protection) (Sphaerotheca fuliginea): 98%
% of efficacy (protection) (Septoria tritici): 100%
% of efficacy (protection) (Phytophthora infestans): 100%
% of efficacy (protection) (Botrytis cinerea): 100%

C#Cc1cnc2ccc(C3=NOC(C)(C(=O)NC(C)(C)/C=N/OC)C3)cc2c1 (stereo not shown) [compound 463]
log P [1, 2]: 2.92[a]
% of efficacy (protection) (Sphaerotheca fuliginea): 97%
% of efficacy (protection) (Septoria tritici): 100%
% of efficacy (protection) (Phytophthora infestans): 100%
% of efficacy (protection) (Botrytis cinerea): 100%

C#Cc1cnc2ccc(C3=NOC(C)(C(=O)NCc4cnn(CC)c4CC)C3)cc2c1 (stereo not shown) [compound 464]
log P [1, 2]: 2.37[a]
% of efficacy (protection) (Sphaerotheca fuliginea): 100%
% of efficacy (protection) (Septoria tritici): 100%
% of efficacy (protection) (Phytophthora infestans): 100%
% of efficacy (protection) (Botrytis cinerea): 98%

C#Cc1cnc2ccc(C3=NOC(C)(C(=O)NC(C)(C)C#CCOC)C3)cc2c1 (stereo not shown) [compound 465]
log P [1, 2]: 2.82[a]
% of efficacy (protection) (Sphaerotheca fuliginea): 81%
% of efficacy (protection) (Septoria tritici): 97%
% of efficacy (protection) (Phytophthora infestans): 100%
% of efficacy (protection) (Botrytis cinerea): 88%

C#Cc1cnc2ccc(C3=NOC(C)(C(=O)NC4CCOCC4C)C3)cc2c1 (stereo not shown) [compound 470]
log P [1, 2]: 2.21[a]
% of efficacy (protection) (Sphaerotheca fuliginea): 75%
% of efficacy (protection) (Septoria tritici): 97%
% of efficacy (protection) (Phytophthora infestans): 98%
% of efficacy (protection) (Botrytis cinerea): 100%

CC1(C)OCC(CNC(=O)C2(C)CC(c3ccc4ncc(I)cc4c3)=NO2)O1 (stereo not shown) [compound 474]
log P [1, 2]: 2.78[a]
% of efficacy (protection) (Sphaerotheca fuliginea): 98%
% of efficacy (protection) (Septoria tritici): 97%
% of efficacy (protection) (Phytophthora infestans): 78%
% of efficacy (protection) (Botrytis cinerea): 100%

CCCn1cc(CNC(=O)C2(CC)CC(c3ccc4ncc(Br)cc4c3)=NO2)c(C)n1 (stereo not shown) [compound 500]
log P [1, 2]: 2.91[a]
% of efficacy (protection) (Sphaerotheca fuliginea): 100%
% of efficacy (protection) (Septoria tritici): 86%
% of efficacy (protection) (Phytophthora infestans): 94%
% of efficacy (protection) (Botrytis cinerea): 85%

C#Cc1cnc2ccc(C3=NOC(C)(C(=O)NC(C)COCC)C3)cc2c1 (stereo not shown) [compound 506]
log P [1, 2]: 2.55[a]
% of efficacy (protection) (Sphaerotheca fuliginea): 97%
% of efficacy (protection) (Septoria tritici): 100%
% of efficacy (protection) (Phytophthora infestans): 94%
% of efficacy (protection) (Botrytis cinerea): 100%

C#Cc1cnc2ccc(C3=NOC(OC)(C(=O)NC(C)(C)c4cc(C)ccn4)C3)cc2c1 (stereo not shown) [compound 511]
log P [1, 2]: 1.95[a]
% of efficacy (protection) (Sphaerotheca fuliginea): 88%
% of efficacy (protection) (Septoria tritici): 100%
% of efficacy (protection) (Phytophthora infestans): 100%
% of efficacy (protection) (Botrytis cinerea): 100%

C#Cc1cnc2ccc(C3=NOC(OC)(C(=O)NC(C)(C)c4nc(C)cs4)C3)cc2c1 (stereo not shown) [compound 514]
log P [1, 4]: 2.90[a]
% of efficacy (protection) (Sphaerotheca fuliginea): 75%
% of efficacy (protection) (Septoria tritici): 98%
% of efficacy (protection) (Phytophthora infestans): 97%
% of efficacy (protection) (Botrytis cinerea): 100%

C#Cc1cnc2c(C)cc(C3=NOC(C)(C(=O)NCc4cn(CCC)nc4C)C3)cc2c1 (stereo not shown) [compound 533]
log P [1, 4]: 2.90[a]
% of efficacy (protection) (Sphaerotheca fuliginea): 100%
% of efficacy (protection) (Septoria tritici): 100%
% of efficacy (protection) (Phytophthora infestans): 90%
% of efficacy (protection) (Botrytis cinerea): 100%

C#Cc1cnc2c(Cl)cc(C3=NOC(C)(C(=O)NCc4cn(CC)nc4C)C3)cc2c1 (stereo not shown) [compound 550]
log P [1, 4]: 2.53[a]
% of efficacy (protection) (Sphaerotheca fuliginea): 80%
% of efficacy (protection) (Septoria tritici): 100%
% of efficacy (protection) (Phytophthora infestans): 83%
% of efficacy (protection) (Botrytis cinerea): 98%

CCn1cc(CNC(=O)C2(SC)CC(c3ccc4ncc(Br)cc4c3)=NO2)c(C)n1 (stereo not shown) [compound 565]
log P [1, 4]: 2.51[a]
% of efficacy (protection) (Sphaerotheca fuliginea): 98%
% of efficacy (protection) (Septoria tritici): 100%
% of efficacy (protection) (Phytophthora infestans): 99%
% of efficacy (protection) (Botrytis cinerea): 100%

C#Cc1cnc2ccc(C3=NOC(C=C)(C(=O)NCC4COC(C)(C)O4)C3)cc2c1 (stereo not shown) [compound 725]
log P [1, 5]: 2.66[a]
% of efficacy (protection) (Sphaerotheca fuliginea): 98%
% of efficacy (protection) (Septoria tritici): 100%
% of efficacy (protection) (Phytophthora infestans): 83%
% of efficacy (protection) (Botrytis cinerea): 98%

C=CC1(C(=O)NCCCOCC)CC(c2ccc3ncc(I)cc3c2)=NO1 (stereo not shown) [compound 730]
log P [1, 5]: 3.19[a]
% of efficacy (protection) (Sphaerotheca fuliginea): 98%
% of efficacy (protection) (Septoria tritici): 100%
% of efficacy (protection) (Phytophthora infestans): 100%
% of efficacy (protection) (Botrytis cinerea): 85%
